Test system: Saprolegnia parasitica
Test: Antifungal effect at different concentrations by 24-well plate method (MIC)
Assay type: cell-based
Details: for Antifungal effect: water mould Saprolegnia parasitica on GY agar
From the text: Water moulds were taken from the body surface of rainbow trout. The water moulds were isolated and subcultured using GY medium (broth) containing 10 g/L of glucose and 2.5 g/L of yeast extract and GY medium (agar) containing 10 g/L of glucose, 2.5 g/L of yeast extract and 7.5 g/L of agar. The pathogenic water moulds were isolated and identified as Saprolegnia parasitica (Gene Bank Data homology search result: 99%) through ITS-5.8S rDNA sequencing at the Korean Culture Center of Microorganisms (KCCM) of the Korean Federation of Culture Collections (KFCC). The natural product sweet flag extract was compared with malachite green. Antifungal effect and minimal inhibitory concentration (MIC) were tested by the 24-well plate method and the diffusion method.
GY agar was placed on a sterilized 24-well plate. […] Hyphae of Saprolegnia parasitica, which had been cultured in GY agar plate, taken with a 50 mL syringe were added to each plate and antifungal activity test was carried out for 72 hours. Photographs were taken every 24 hours.
GY agar was placed on a sterilized 24-well plate. After waiting until the medium was dry, each 100 μL of 20 ppm, 2 ppm and 0.2 ppm malachite green (MG) was added to the GY medium (control), in the same manner as in FIG. 1. Hyphae of Saprolegnia parasitica, which had been cultured in GY agar plate, taken with a 50 mL syringe were added to each plate and antifungal activity test was carried out for 72 hours. Photographs were taken every 24 hours.

CN(C)c1ccc(C(=C2C=CC(=[N+](C)C)C=C2)c2ccccc2)cc1 [MG, malachite green]
Antifungal effect (0.2 ppm): +
Antifungal effect (2 ppm): ++
Antifungal effect (20 ppm): +++
MIC (Saprolegnia parasitica, read-out: MIC (minimal inhibitory concentration)): 2 µg/mL
